Laboratory results: ChEMBL document CHEMBL1201862, “PubChem BioAssay data set” (2004)
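Interpolation was linear, between the two tested concentrations surrounding the appropriate level; five concentrations were tested over 48 hours in 96-well plates. GI50: concentration for 50% inhibition of growth.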 Calls of active or inactive are those of the source. Rule as the data show it: active = GI50 up to about 1.1 µM and inactive = higher.

How the values were obtained:
Test in all cases: inhibition of tumour cell growth, NCI panel, 48 h
[1] = test system: 786-0
[2] = test system: A498
[3] = test system: A549
[4] = test system: ACHN
[5] = test system: BT-549
[6] = test system: CAKI-1
[7] = test system: CCRF-CEM
[8] = test system: COLO 205
[9] = test system: DU-145
[10] = test system: EKVX
[11] = test system: HCC 2998
[12] = test system: HCT-116
[13] = test system: HCT-15
[14] = test system: HL-60
[15] = test system: HOP-62
[16] = test system: HOP-92
[17] = test system: HT-29
[18] = test system: Hs-578T
[19] = test system: IGROV-1
[20] = test system: K562
[21] = test system: KM12
[22] = test system: LOX IMVI
[23] = test system: M14
[24] = test system: MCF7
[25] = test system: MDA-MB-231
[26] = test system: MDA-MB-435
[27] = test system: MDA-N
[28] = test system: MOLT-4
[29] = test system: Malme-3M
[30] = test system: NCI-H226
[31] = test system: NCI-H23
[32] = test system: NCI-H460
[33] = test system: NCI/ADR-RES
[34] = test system: OVCAR-3
[35] = test system: OVCAR-4
[36] = test system: OVCAR-5
[37] = test system: OVCAR-8
[38] = test system: PC-3
[39] = test system: RPMI-8226
[40] = test system: RXF 393
[41] = test system: SF-268
[42] = test system: SF-295
[43] = test system: SF-539
[44] = test system: SK-MEL-28
[45] = test system: SK-MEL-2
[46] = test system: SK-MEL-5
[47] = test system: SK-OV-3
[48] = test system: SN12C
[49] = test system: SNB-19
[50] = test system: SNB-75
[51] = test system: SR
[52] = test system: SW-620
[53] = test system: T47D
[54] = test system: TK-10
[55] = test system: U-251
[56] = test system: UACC-257
[57] = test system: UACC-62
[58] = test system: UO-31
[59] = test system: NCI-H522

`CC(=O)C(=[N+]=[N-])C(=O)OC(C)(C)C#N` was tested, and the GI50 [1] was > 10 µM (inactive), the GI50 [2] was > 10 µM (inactive) and the GI50 [3] was > 10 µM (inactive). For the same molecule, the GI50 [4] was > 10 µM (inactive), the GI50 [5] was > 10 µM (inactive) and the GI50 [6] was > 10 µM (inactive). The GI50 [7] was > 10 µM (inactive), the GI50 [8] was > 10 µM (inactive) and the GI50 [9] was > 10 µM (inactive). For the same molecule, the GI50 [10] was > 10 µM (inactive), the GI50 [11] was > 10 µM (inactive) and the GI50 [12] was > 10 µM (inactive). The GI50 [13] was over 10 µM, the GI50 [14] was > 10 µM (inactive) and the GI50 [15] was > 10 µM (inactive). For the same molecule, the GI50 [16] was > 10 µM (inactive), the GI50 [17] was > 10 µM (inactive) and the GI50 [18] was > 10 µM (inactive). For the same molecule, the GI50 [19] was > 10 µM (inactive), the GI50 [20] was > 10 µM (inactive) and the GI50 [21] was > 10 µM (inactive). For the same molecule, the GI50 [22] was > 10 µM (inactive), the GI50 [23] was > 10 µM (inactive) and the GI50 [24] was > 10 µM (inactive). For the same molecule, the GI50 [25] was > 10 µM (inactive), the GI50 [26] was > 10 µM (inactive) and the GI50 [27] was > 10 µM (inactive). The GI50 [28] was > 10 µM (inactive), the GI50 [29] was > 10 µM (inactive) and the GI50 [30] was > 10 µM (inactive). For the same molecule, the GI50 [31] was > 10 µM (inactive), the GI50 [32] was > 10 µM (inactive) and the GI50 [33] was > 10 µM (inactive). The GI50 [34] was > 10 µM (inactive), the GI50 [35] was > 10 µM (inactive) and the GI50 [36] was > 10 µM (inactive). For the same molecule, the GI50 [37] was > 10 µM (inactive), the GI50 [38] was > 10 µM (inactive) and the GI50 [39] was > 10 µM (inactive). The GI50 [40] was > 10 µM (inactive), the GI50 [41] was > 10 µM (inactive) and the GI50 [42] was > 10 µM (inactive). For the same molecule, the GI50 [43] was > 10 µM (inactive), the GI50 [44] was > 10 µM (inactive) and the GI50 [45] was > 10 µM (inactive). For the same molecule, the GI50 [46] was > 10 µM (inactive), the GI50 [47] was > 10 µM (inactive) and the GI50 [48] was > 10 µM (inactive). The GI50 [49] was > 10 µM (inactive), the GI50 [50] was 1.48 µM (inactive) and the GI50 [51] was > 10 µM (inactive). The GI50 [52] was > 10 µM (inactive), the GI50 [53] was > 10 µM (inactive) and the GI50 [54] was > 10 µM (inactive). For the same molecule, the GI50 [55] was > 10 µM (inactive), the GI50 [56] was > 10 µM (inactive) and the GI50 [57] was > 10 µM (inactive). The GI50 [58] was > 10 µM (inactive).
For `O=C(CCCCCCCCC(=O)N1C(=O)CC(=O)N(c2cccc(Cl)c2)C1=S)N1C(=O)CC(=O)N(c2cccc(Cl)c2)C1=S`, the GI50 [1] was 45.6 µM (inactive), the GI50 [2] was 39.9 µM (inactive) and the GI50 [3] was 32.5 µM (inactive). The GI50 [4] was 46.2 µM (inactive), the GI50 [5] was 44.1 µM (inactive) and the GI50 [6] was 20.5 µM (inactive). For the same molecule, the GI50 [7] was 32.7 µM (inactive), the GI50 [8] was 37.3 µM (inactive) and the GI50 [9] was 89.7 µM (inactive). The GI50 [10] was 38.3 µM (inactive), the GI50 [11] was 94.4 µM (inactive) and the GI50 [12] was 34.2 µM (inactive). The GI50 [13] was 43.5 µM, the GI50 [15] was 43.2 µM (inactive) and the GI50 [16] was 20.5 µM (inactive). For the same molecule, the GI50 [17] was 36.9 µM (inactive), the GI50 [18] was 19.3 µM (inactive) and the GI50 [21] was 40.3 µM (inactive). The GI50 [22] was 47.1 µM (inactive), the GI50 [23] was 38.9 µM (inactive) and the GI50 [24] was 34.3 µM (inactive). The GI50 [25] was 24.6 µM (inactive), the GI50 [26] was 59.8 µM (inactive) and the GI50 [27] was 41.2 µM (inactive). For the same molecule, the GI50 [28] was 20 µM (inactive), the GI50 [29] was 66.1 µM (inactive) and the GI50 [31] was 39.7 µM (inactive). For the same molecule, the GI50 [32] was 45.9 µM (inactive), the GI50 [59] was 16.3 µM (inactive) and the GI50 [33] was 27.2 µM (inactive). The GI50 [34] was 25.2 µM (inactive), the GI50 [35] was 37.7 µM (inactive) and the GI50 [36] was 56.6 µM (inactive). For the same molecule, the GI50 [37] was 34.9 µM (inactive), the GI50 [38] was 26.6 µM (inactive) and the GI50 [39] was 27.2 µM (inactive). The GI50 [40] was 44.9 µM (inactive), the GI50 [41] was 57.4 µM (inactive) and the GI50 [42] was 28.1 µM (inactive). The GI50 [45] was 37.7 µM (inactive), the GI50 [46] was 28.7 µM (inactive) and the GI50 [47] was 42.6 µM (inactive). For the same molecule, the GI50 [48] was 40.2 µM (inactive), the GI50 [49] was 33.7 µM (inactive) and the GI50 [50] was 33.3 µM (inactive). For the same molecule, the GI50 [51] was 26.1 µM (inactive), the GI50 [53] was 37 µM (inactive) and the GI50 [54] was 56.9 µM (inactive). For the same molecule, the GI50 [55] was 35.6 µM (inactive), the GI50 [56] was 45 µM (inactive) and the GI50 [57] was 21.9 µM (inactive). The GI50 [58] was 27.5 µM (inactive).
